Results published in publication PMC7321161, “The Intriguing Effects of Substituents in the N-Phenethyl Moiety of Norhydromorphone: A Bifunctional Opioid from a Set of “Tail Wags Dog” Experiments” (Molecules, 2020).
Values joined by “and” are separate entries in the source; they are usually repeats but may differ in a detail not shown here. Identical values can stand only once.

Assays:
[1] = target: T1, human μ-opioid receptor (OPRM1) (Homo sapiens, UniProt P35372); experiment: cell-based; details: for EC50: MOR cAMP Agonist Potency ± SEM; for Emax: OPRM1, read-out: MOR cAMP % Efficacy
T1 construct: host or cells: HitHunter CHO-K1 cells
T1 sequence (P35372 whole entry): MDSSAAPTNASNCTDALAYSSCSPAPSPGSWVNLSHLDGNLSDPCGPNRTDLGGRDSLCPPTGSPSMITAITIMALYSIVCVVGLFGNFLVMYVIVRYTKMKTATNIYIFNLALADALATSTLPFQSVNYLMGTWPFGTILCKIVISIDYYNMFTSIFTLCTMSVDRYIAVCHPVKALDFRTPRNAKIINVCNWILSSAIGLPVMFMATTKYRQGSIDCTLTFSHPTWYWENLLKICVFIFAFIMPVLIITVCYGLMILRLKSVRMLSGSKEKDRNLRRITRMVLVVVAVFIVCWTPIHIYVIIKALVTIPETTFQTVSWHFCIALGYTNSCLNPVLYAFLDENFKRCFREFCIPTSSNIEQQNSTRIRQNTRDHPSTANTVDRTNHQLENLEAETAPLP

[2] = target: T2, human μ-opioid receptor β-arrestin-2 (Homo sapiens, UniProt P35372); experiment: cell-based; details: for Emax: read-out: MOR Mediated β-arrestin Recruitment (% Control, Emax DAMGO)
T2 construct: enzyme fragment for EFC (β-galactosidase ProLink fragment, by own knowledge of the PathHunter system); host or cells: PathHunter CHO cells
T2 sequence (P35372 whole entry, the tested form may be a part): as the sequence (P35372 whole entry) above

[3] = target: T3, human κ-opioid receptor (OPRK1) (Homo sapiens, UniProt P41145); experiment: cell-based; details: for Emax: CHO-K1, read-out: KOR cAMP % Efficacy; for EC50: KOR cAMP Agonist Potency ± SEM
T3 construct: host or cells: HitHunter CHO-K1 cells
T3 sequence (P41145 whole entry): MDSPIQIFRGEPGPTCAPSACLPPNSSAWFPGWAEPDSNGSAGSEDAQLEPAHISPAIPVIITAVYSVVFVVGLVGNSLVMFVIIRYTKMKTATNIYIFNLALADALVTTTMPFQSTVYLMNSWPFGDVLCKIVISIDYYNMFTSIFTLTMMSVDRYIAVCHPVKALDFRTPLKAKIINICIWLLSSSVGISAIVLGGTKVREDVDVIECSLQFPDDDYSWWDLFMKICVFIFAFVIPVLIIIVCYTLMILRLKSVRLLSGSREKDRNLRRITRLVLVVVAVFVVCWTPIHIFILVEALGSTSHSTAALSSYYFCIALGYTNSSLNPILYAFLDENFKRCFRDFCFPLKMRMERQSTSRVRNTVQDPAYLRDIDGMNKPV

[4] = target: T4, human δ-receptor (OPRMD1) (Homo sapiens, UniProt P41143); experiment: cell-based; format: cell-based; details: for Emax: CHO-K1, read-out: DOR cAMP % Efficacy; for EC50: DOR cAMP Agonist Potency ± SEM
T4 construct: host or cells: HitHunter CHO-K1 cells
T4 sequence (P41143 whole entry): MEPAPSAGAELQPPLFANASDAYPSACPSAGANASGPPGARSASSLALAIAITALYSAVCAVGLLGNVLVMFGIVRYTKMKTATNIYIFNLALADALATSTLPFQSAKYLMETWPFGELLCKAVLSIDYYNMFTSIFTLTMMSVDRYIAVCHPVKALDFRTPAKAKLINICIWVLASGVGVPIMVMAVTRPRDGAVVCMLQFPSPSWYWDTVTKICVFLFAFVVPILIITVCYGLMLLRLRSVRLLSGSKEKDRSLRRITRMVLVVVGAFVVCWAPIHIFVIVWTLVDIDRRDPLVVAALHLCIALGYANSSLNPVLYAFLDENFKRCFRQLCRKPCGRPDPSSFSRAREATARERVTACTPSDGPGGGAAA

δ-opioid receptor (DOR) = target: T5, δ-opioid receptor (DOR) (Rattus norvegicus, UniProt P33533); experiment: Opioid receptor binding, δ sites ([3H]DADLE), rat brain homogenate
T5 construct: Frozen whole rat brains excluding cerebellum were thawed on ice; from tissue; host or cells: whole rat brain excluding cerebellum, membrane homogenate
T5 sequence (P33533 whole entry): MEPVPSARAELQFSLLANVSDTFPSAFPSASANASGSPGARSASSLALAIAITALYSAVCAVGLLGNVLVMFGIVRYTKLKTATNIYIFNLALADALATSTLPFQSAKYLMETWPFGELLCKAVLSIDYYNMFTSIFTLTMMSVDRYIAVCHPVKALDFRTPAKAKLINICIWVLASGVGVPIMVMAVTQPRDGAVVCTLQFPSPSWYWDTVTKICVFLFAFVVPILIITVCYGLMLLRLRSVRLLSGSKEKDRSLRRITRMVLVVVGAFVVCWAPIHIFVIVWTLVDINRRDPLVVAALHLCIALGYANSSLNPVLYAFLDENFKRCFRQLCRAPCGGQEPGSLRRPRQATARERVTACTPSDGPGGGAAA

κ-opioid receptor (KOR) = target: T6, κ-opioid receptor (KOR) (Rattus norvegicus, UniProt P34975); experiment: Opioid receptor binding, κ sites ([3H]U69,593), rat brain homogenate; details: for KOR Binding, exploratory binding assay: radioligand displacement at 100 nM; for Ki: KOR Binding (Ki), whole rat brain excluding cerebellum, [3H]U69,593, Ki ± SEM
T6 construct: Frozen whole rat brains excluding cerebellum were thawed on ice; from tissue; host or cells: whole rat brain excluding cerebellum, membrane homogenate
T6 sequence (P34975 whole entry): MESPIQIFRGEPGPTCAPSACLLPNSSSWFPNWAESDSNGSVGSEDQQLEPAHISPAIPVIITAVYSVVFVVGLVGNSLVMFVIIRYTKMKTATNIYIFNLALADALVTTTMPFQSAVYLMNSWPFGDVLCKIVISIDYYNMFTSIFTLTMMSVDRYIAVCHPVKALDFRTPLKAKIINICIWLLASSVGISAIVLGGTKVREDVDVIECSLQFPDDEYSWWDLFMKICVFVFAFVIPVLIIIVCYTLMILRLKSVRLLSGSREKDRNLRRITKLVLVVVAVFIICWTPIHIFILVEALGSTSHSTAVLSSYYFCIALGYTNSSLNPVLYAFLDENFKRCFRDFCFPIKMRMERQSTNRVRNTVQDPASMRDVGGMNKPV

μ-opioid receptor (MOR) = target: T7, μ-opioid receptor (MOR) (Rattus norvegicus, UniProt P33535); experiment: Opioid receptor binding, μ sites ([3H]DAMGO), rat brain homogenate
T7 construct: Frozen whole rat brains excluding cerebellum were thawed on ice; from tissue; host or cells: whole rat brain excluding cerebellum, membrane homogenate
T7 sequence (P33535 whole entry): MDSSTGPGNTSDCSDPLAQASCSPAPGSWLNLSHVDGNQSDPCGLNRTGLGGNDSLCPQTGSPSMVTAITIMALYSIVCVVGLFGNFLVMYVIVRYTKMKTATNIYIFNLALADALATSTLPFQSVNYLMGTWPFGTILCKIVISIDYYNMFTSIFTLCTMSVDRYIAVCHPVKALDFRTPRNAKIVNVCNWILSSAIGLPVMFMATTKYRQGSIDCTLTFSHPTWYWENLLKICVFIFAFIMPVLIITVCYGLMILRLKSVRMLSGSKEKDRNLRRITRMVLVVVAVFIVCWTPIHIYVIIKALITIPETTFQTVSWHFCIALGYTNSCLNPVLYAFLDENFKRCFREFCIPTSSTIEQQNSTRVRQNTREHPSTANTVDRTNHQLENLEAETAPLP

rat MOR = target: T8, rat MOR (Rattus norvegicus, UniProt P33535); experiment: Stimulation of [35S]GTPγS binding, C6 glioma cell membranes expressing MOR; format: biochemical; details: for MOR activity type in the [35S]GTPγS assay: antagonist activity assumed from high MOR affinity and lack of stimulation; for MOR % Stimulation, [35S]GTPγS: compared to standard maximal DAMGO; for MOR EC50, [35S]GTPγS: C6 cells expressing MOR, mean ± SEM, DNS = no stimulation
T8 construct: expressed in transfected cells; host or cells: C6 rat glioma cells, stably transfected; membranes
T8 sequence (P33535 whole entry): as above

rat DOR = target: T9, rat DOR (Rattus norvegicus, UniProt P33533); experiment: Stimulation of [35S]GTPγS binding, C6 glioma cell membranes expressing DOR; format: biochemical; details: for EC50: DOR EC50, [35S]GTPγS, C6 cells expressing DOR, mean ± SEM; for DOR % Stimulation, [35S]GTPγS: compared to standard maximal DPDPE
T9 construct: expressed in transfected cells; host or cells: C6 rat glioma cells, stably transfected; membranes
T9 sequence (P33533 whole entry): as the sequence (P33533 whole entry) above

human KOR = target: T10, human KOR (Homo sapiens, UniProt P41145); experiment: Stimulation of [35S]GTPγS binding, CHO cell membranes expressing KOR; format: biochemical; details: for KOR % Stimulation, [35S]GTPγS: compared to standard maximal U69593
T10 construct: expressed in transfected cells; membranes
T10 sequence (P41145 whole entry): as the sequence (P41145 whole entry) above

| SMILES | EC50 [1] | Emax [1] [%] | Bias Factor [2] | EC50 [2] [nM] | Emax [2] [%] | Emax [3] [%] | EC50 [3] | Emax [4] [%] | EC50 [4] | Ki (μ-opioid receptor (MOR)) [nM] | Ki (δ-opioid receptor (DOR)) [nM] | EC50 (rat MOR) [nM] | MOR activity type in the [35S]GTPγS assay (rat MOR) | MOR % Stimulation, [35S]GTPγS (rat MOR) | Ki (κ-opioid receptor (KOR)) [nM] | EC50 (rat DOR) | DOR % Stimulation, [35S]GTPγS (rat DOR) | further results |
| --- | --- | --- | --- | --- | --- | --- | --- | --- | --- | --- | --- | --- | --- | --- | --- | --- | --- | --- |
| O=C1CCC2C3Cc4ccc(O)c5c4[C@@]2(CCN3CCc2c(Cl)cccc2Cl)[C@H]1O5 (stereo partly drawn) [Compound 2k, (7aR,12bS)-3-(2,6-Dichlorophenethyl)-9-hydroxy-2,3,4,4a,5,6-hexahydro-1H-4,12-methanobenzofuro[3,2-e]isoquinolin-7(7aH)-one] | 0.37 nM | 101 | 1.04 | 13.1 | 24.6 | 74 | 1880 nM | 95.8 | 21.9 nM |  |  |  |  |  |  |  |  |  |
| O=C1CCC2C3Cc4ccc(O)c5c4[C@@]2(CCN3CC=Cc2ccccc2)[C@H]1O5 (stereo partly drawn) [Compound 1c, (7aR,12bS)-3-Cinnamyl-9-hydroxy-2,3,4,4a,5,6-hexahydro-1H-4,12-methanobenzofuro[3,2-e]isoquinolin-7(7aH)-one] | 76.7 nM | 103 | 1.35 | 584 | 4.1 |  | > 10000 nM | 96.5 | 1700 nM | 90.5 ± 11 |  |  |  |  |  |  |  | DOR Binding, exploratory binding assay (δ-opioid receptor (DOR); radioligand displacement at 100 nM): NT (NT = not tested—inactive (<50% activity at 100 nM concentration in exploratory binding assays (displaced less than half of radioligand)); KOR Binding, exploratory binding assay (κ-opioid receptor (KOR)): NT (NT = not tested—inactive (<50% activity at 100 nM concentration in exploratory binding assays (displaced less than half of radioligand)) |
| C[C@@H](NC(=O)[C@@H](N)Cc1ccc(O)cc1)C(=O)NCC(=O)N(C)[C@@H](Cc1ccccc1)C(=O)NCCO [DAMGO, [D-Ala^2, N-MePhe^4, Gly-ol]-enkephalin, reference compound] |  | 102 |  |  |  |  |  |  |  |  |  |  |  |  |  |  |  |  |
| O=C1CCC2C3Cc4ccc(O)c5c4[C@@]2(CCN3CCc2ccc([N+](=O)[O-])cc2)[C@H]1O5 (stereo partly drawn) [Compound 2a, (7aR,12bS)-9-Hydroxy-3-(4-nitrophenethyl)-2,3,4,4a,5,6-hexahydro-1H-4,12-methanobenzofuro[3,2-e]-isoquinolin-7(7aH)-one] | 0.05 nM | 102 | 4.51 | 6.38 | 26.2 | 63 | 74.6 nM | 96 | 0.53 nM | 0.52 ± 0.01 | 6.07 ± 0.86 | 1.9 ± 0.5 | potent MOR agonist | 26.6 ± 1.4% | 56 ± 8.2 | 227 ± 53 nM | 64.3 ± 3.3% |  |
| O=C(O)C(=O)O.O=C1CCC2[C@H]3Cc4ccc(O)c5c4[C@@]2(CCN3CCc2ccc(Br)cc2)[C@H]1O5 (stereo partly drawn) [Compound 2j, (4R,7aR,12bS)-3-(4-Bromophenethyl)-9-hydroxy-2,3,4,4a,5,6-hexahydro-1H-4,12-methanobenzofuro[3,2-e]-isoquinolin-7(7aH)-one oxalate] | 0.15 nM | 103 | 0.43 | 4.9 | 53 | 99 | 20 nM and 20.1 nM | 96 | 0.97 nM |  |  |  |  |  |  |  |  | EC50 δ/μ ratio in the cAMP assay [4]: 6.5 |
| O=C1CCC2C3Cc4ccc(O)c5c4[C@@]2(CCN3CCc2ccccc2F)[C@H]1O5 (stereo partly drawn) [Compound 2g, (7aR,12bS)-9-Hydroxy-3-(2-fluorophenethyl)-2,3,4,4a,5,6-hexahydro-1H-4,12-methanobenzofuro[3,2-e]-isoquinolin-7(7aH)-one] | 0.01 nM | 101 | 1.37 | 1.7 | 73.2 | 74 | 19.9 nM | 93.8 | 0.26 nM | 0.32 ± 0.04 | 3.57 ± 0.49 | 2.1 ± 0.7 |  | 100 ± 0.3% | 23.2 ± 2.8 | 92.7 ± 17 nM | 83.0 ± 3.3% | KOR EC50, [35S]GTPγS (human KOR; CHO cells expressing KOR, mean ± SEM, DNS = no stimulation): DNS |
| COc1ccc(CCN2CC[C@]34c5c6ccc(O)c5O[C@H]3C(=O)CCC4C2C6)cc1 (stereo partly drawn) [Compound 2d, (7aR,12bS)-9-Hydroxy-3-(4-methoxyphenethyl)-2,3,4,4a,5,6-hexahydro-1H-4,12-methanobenzofuro[3,2-e]-isoquinolin-7(7aH)-one] | 0.13 nM | 103 | 2.69 | 11.2 | 23 | 96.2 | 7.4 nM and 7.38 nM | 97.5 | 2.7 nM and 2.71 nM | 0.67 ± 0.05 | 5.43 ± 0.47 |  | MOR antagonist |  | 26.3 ± 1.9 | 33.6 ± 6.4 nM | 49% and 48.9 ± 3.2% | MOR EC50, [35S]GTPγS (rat MOR): DNS; EC50 (human KOR): 5.9 ± 1.7 nM; KOR % Stimulation, [35S]GTPγS (human KOR): 21.8% and 21.8 ± 0.8% |
| N#CCN1CC[C@]23c4c5ccc(O)c4O[C@H]2C(=O)CCC3C1C5 (stereo partly drawn) [Compound 1a, 2-((7aR,12bS)-9-Hydroxy-7-oxo-1,2,4,4a,5,6,7,7a-octahydro-3H-4,12-methanobenzofuro[3,2-e]isoquinolin-3-yl)acetonitrile] | 4.16 nM | 102 | 2.18 | 424 | 33.4 | 99.3 | 109 nM | 77 | 254 nM | 4.51 ± 0.27 | 141 ± 2.8 | 425 ± 133 |  | 47% and 47.1 ± 3.3% | 90.3 ± 6.6 |  |  |  |
| O=C1CCC2C3Cc4ccc(O)c5c4[C@@]2(CCN3CC2Cc3ccccc3C2)[C@H]1O5 (stereo partly drawn) [Compound 1d, (7aR,12bS)-3-((2,3-Dihydro-1H-inden-2-yl)methyl)-9-hydroxy-2,3,4,4a,5,6-hexahydro-1H-4,12-methano-benzofuro[3,2-e]isoquinolin-7(7aH)-one] | 18.3 nM | 95.2 | 2.53 | 130 | 1.9 |  | > 10000 nM | 94.4 | 596 nM | 40.1 ± 5.9 | 844 ± 107 |  |  |  |  |  |  | KOR Binding, exploratory binding assay (κ-opioid receptor (KOR)): NT (NT = not tested—inactive (<50% activity at 100 nM concentration in exploratory binding assays (displaced less than half of radioligand)) |
| N#CCCCN1CCC23c4c5ccc(O)c4OC2C(=O)CCC3C1C5 (stereo not shown) [Compound 1b] |  |  |  |  |  |  |  |  |  | 4.25 ± 0.29 | 72.2 ± 1.2 |  | MOR antagonist |  | 2.71 ± 0.22 |  |  | MOR EC50, [35S]GTPγS (rat MOR): DNS; EC50 (human KOR): 24.3 ± 5 nM; KOR % Stimulation, [35S]GTPγS (human KOR): 89.6 ± 0.9% |
| O=C1CCC2C3Cc4ccc(O)c5c4C2(CCN3CCc2ccccc2)C1O5 (stereo not shown) [Compound S11, N-Phenethylnorhydromorphone] | 0.04 nM | 102 | 0.47 | 1.71 | 61.9 | 80.6 | 23 nM and 22.7 nM | 95.1 | 1.54 nM |  |  |  |  |  |  |  |  | EC50 δ/μ ratio in the cAMP assay [4]: 38.5 and 39 |
| O=C1CCC2C3Cc4ccc(O)c5c4C2(CCN3CCc2cccc([N+](=O)[O-])c2)C1O5 [Compound 2b, (7aR,12bS)-9-Hydroxy-3-(3-nitrophenethyl)-2,3,4,4a,5,6-hexahydro-1H-4,12-methanobenzofuro[3,2-e]-0isoquinolin-7(7aH)-one] | 5.2 nM and 5.22 nM | 102 | 3.38 | 116 | 6 |  | > 10000 nM | 95.3 | 46.7 nM | 5.88 ± 0.38 | 92.5 ± 7.3 |  | MOR antagonist |  | 65.4 ± 7.7 |  |  | MOR EC50, [35S]GTPγS (rat MOR): DNS |
| O=C1CCC2C3Cc4ccc(O)c5c4[C@@]2(CCN3CCc2ccc(C(F)(F)F)cc2)[C@H]1O5 (stereo partly drawn) [Compound 2h, (7aR,12bS)-9-Hydroxy-3-(4-(trifluoromethyl)phenethyl)-2,3,4,4a,5,6-hexahydro-1H-4,12-methanobenzofuro-[3,2-e]isoquinolin-7(7aH)-one] | 0.21 nM | 102 | 0.56 | 10.3 | 62.4 | 95.7 | 98.2 nM | 94.3 | 2.41 nM | 2.7 ± 0.17 | 16.4 ± 0.4 | 3.4 ± 1.2 |  | 72.2 ± 5.5% |  | 36 nM and 35.7 nM | 82.3 ± 2.3% | KOR Binding, exploratory binding assay (κ-opioid receptor (KOR)): NT (NT = not tested—inactive (<50% activity at 100 nM concentration in exploratory binding assays (displaced less than half of radioligand)) |
